Drawing on patent US20250101028A1, “HETEROCYCLIC COMPOUNDS, COMPOSITIONS THEREOF, AND METHODS OF TREATMENT THEREWITH” (BeiGene, Ltd., priority 2022, published 2025), this text covers IC50 for 8 compounds.

The structures appear in SMILES notation.

This test deals with T1, GST-tagged GDP-loaded KRAS G12V (amino acids 1-169) (Homo sapiens, UniProt P01116, G12V).
T1 construct: GST-tagged GDP-loaded KRAS G12V (amino acids 1-169); made in house; host or cells: E. coli
T1 sequence (P01116 1-169 isoform P01116-2 G12V): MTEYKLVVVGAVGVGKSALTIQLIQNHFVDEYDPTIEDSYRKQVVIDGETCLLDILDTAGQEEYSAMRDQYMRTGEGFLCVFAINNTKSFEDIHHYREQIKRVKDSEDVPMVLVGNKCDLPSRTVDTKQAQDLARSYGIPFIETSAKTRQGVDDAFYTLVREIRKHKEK
Kind of test: KRAS G12V probe displacement assay (TR-FRET). It is filed as binding. As to conditions: displacement of biotinylated probe 2 from GDP-loaded KRAS G12V. The method, boiled down:
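Probe displacement read as TR-FRET (665/620 nm) with anti-GST-Tb and streptavidin-XL665, IC50 from four-parameter logistic fit. Compound preincubated 1 h, 24 °C, with E. coli-expressed KRAS 1-169: WT at 3 nM with 60 nM probe 1, G12V at 2 nM with 2.5 nM probe 2, pH 7.5.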
`C[C@H]1COC[C@H](C)N1c1nc(OC[C@@]23CCCN2C[C@H](F)C3)nc2c(F)c(-c3cc(N)cc(Cl)c3C(F)(F)F)ncc12` [Example 118, 3-chloro-5-(4-((3S,5S)-3,5-dimethylmorpholino)-8-fluoro-2-(((2R,7aS)-2-fluorotetrahydro-1H-pyrrolizin-7a(5H)-yl)methoxy)pyrido[4,3-d]pyrimidin-7-yl)-4-(trifluoromethyl)aniline] had a 50% inhibitory concentration (IC50) of 23 nM.

Turning to `Nc1nc2c(-c3c(C(F)(F)F)cc4c(N[C@H]5C[C@H](F)C5)nc(OC[C@@]56CCCN5C[C@H](F)C6)nc4c3F)ccc(F)c2s1` [Example 16, 7-fluoro-4-(8-fluoro-4-(((trans)-3-fluorocyclobutyl)amino)-2-(((2R,7aS)-2-fluorotetrahydro-1H-pyrrolizin-7a(5H)-yl)methoxy)-6-(trifluoromethyl)quinazolin-7-yl)benzo[d]thiazol-2-amine], the 50% inhibitory concentration (IC50) amounted to 14 nM. In turn, `N#CC1(F)CCN(c2nc(OC[C@@]34CCCN3C[C@H](F)C4)nc3c(F)c(-c4ccc(F)c5sc(N)nc45)c(C(F)(F)F)cc23)CC1` [Example 70, 1-(7-(2-amino-7-fluorobenzo[d]thiazol-4-yl)-8-fluoro-2-(((2R,7aS)-2-fluorotetrahydro-1H-pyrrolizin-7a(5H)-yl)methoxy)-6-(trifluoromethyl)quinazolin-4-yl)-4-fluoropiperidine-4-carbonitrile] returned an IC50 of 7.5 nM. Compound `Nc1nc2c(-c3c(C(F)(F)F)cc4c(N5CCC(O)CC5)nc(OC[C@@]56CCCN5C[C@H](F)C6)nc4c3F)ccc(F)c2s1` [Example 78, 1-(7-(2-amino-7-fluorobenzo[d]thiazol-4-yl)-8-fluoro-2-(((2R,7aS)-2-fluorotetrahydro-1H-pyrrolizin-7a(5H)-yl)methoxy)-6-(trifluoromethyl)quinazolin-4-yl)piperidin-4-ol] displayed a concentration for half-maximal inhibition (IC50) of 3.3 nM.

For `Nc1nc2c(-c3c(Cl)cc4c(NC5CCC5)nc(OC[C@@]56CCCN5C[C@H](F)C6)nc4c3F)ccc(F)c2s1` [Example 31, 4-(6-chloro-4-(cyclobutylamino)-8-fluoro-2-(((2R,7aS)-2-fluorotetrahydro-1H-pyrrolizin-7a(5H)-yl)methoxy)quinazolin-7-yl)-7-fluorobenzo[d]thiazol-2-amine], the concentration for half-maximal inhibition (IC50) came to 57 nM. `Nc1nc2c(-c3c(C(F)(F)F)cc4c(N5CCC6(CCNC(=O)O6)CC5)nc(OC[C@@]56CCCN5C[C@H](F)C6)nc4c3F)ccc(F)c2s1` [Example 99, 9-(7-(2-amino-7-fluorobenzo[d]thiazol-4-yl)-8-fluoro-2-(((2R,7aS)-2-fluorotetrahydro-1H-pyrrolizin-7a(5H)-yl)methoxy)-6-(trifluoromethyl)quinazolin-4-yl)-1-oxa-3,9-diazaspiro[5.5]undecan-2-one] came in with an IC50 of 2.8 nM. In the case of `Nc1cc(Cl)c(C(F)(F)F)c(-c2ncc3c(NC4CC4)nc(OC[C@@]45CCCN4C[C@H](F)C5)nc3c2F)c1` [Example 110, 7-(5-amino-3-chloro-2-(trifluoromethyl)phenyl)-N-cyclopropyl-8-fluoro-2-(((2R,7aS)-2-fluorotetrahydro-1H-pyrrolizin-7a(5H)-yl)methoxy) pyrido[4,3-d]pyrimidin-4-amine], the IC50 came to 17 nM. On to `CC1CC(C#N)CCN1c1nc(OC[C@@]23CCCN2C[C@H](F)C3)nc2c(F)c(-c3ccc(F)c4sc(N)nc34)c(C(F)(F)F)cc12` (relative stereo) [Example 74, 1-(7-(2-amino-7-fluorobenzo[d]thiazol-4-yl)-8-fluoro-2-(((2R,7aS)-2-fluorotetrahydro-1H-pyrrolizin-7a(5H)-yl)methoxy)-6-(trifluoromethyl)quinazolin-4-yl)-trans-2-methylpiperidine-4-carbonitrile], for which the half-inhibitory concentration (IC50) was 1.9 nM.
